Measurements reported in publication PMC6327998, “Synthesis and biological evaluation of thiazole derivatives as LbSOD inhibitors” (Journal of Enzyme Inhibition and Medicinal Chemistry, 2018).

How the values were obtained:
[1] = molecular target: T1, LbSOD (Leishmania braziliensis iron superoxide dismutase, FeSOD); test: Kd from concentration-response (FITC-labeled protein fluorescence / thermal shift); binding confirmed by ITC
T1 construct: recombinant from pETM11-LbSOD, 6xHis-tag removed by TEV protease (23 kDa)

[2] = molecular target: T1, LbSOD (Leishmania braziliensis iron superoxide dismutase, FeSOD); test: Kd from concentration-response (FITC-labeled protein fluorescence / thermal shift); format: binding

SMILES	Kd [1]	Kd [2]
O=[N+]([O-])c1ccc(-c2csc(N=Cc3ccc(Br)c(Br)c3)n2)cc1 [Ju-480, N-(3,4-dibromobenzylidene)-4–(4-nitrophenyl)thiazol-2-imine]	0.0048 ± 0.0125 mM	
COc1cccc(C=Nc2nc(-c3ccc(Br)cc3)cs2)c1 [Ju-514, N-(3-methoxybenzylidene)-4–(4-bromophenyl)thiazol-2-imine]		6.1 ± 0.8 mM
